Measured values from patent publication US9796753B2, “N-substituted indenoisoquinolines and syntheses thereof” (Purdue Research Foundation, priority 2005, dated 2017).
Like-named read-outs stand apart in the source and are kept apart here.

Assays:
Assay type in all cases: cell-based
[1] = test system: CNS SF-539; experiment: COMPARE screening (NCI human cancer cell line screen), cytotoxicity GI50
In short: (§1)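 Step one: incubate NCI60 cell lines 48 h with test agent (100–0.01 μM, tenfold steps). Step two: SRB dye treatment and OD reading. Step three: percentage growth relative to control plotted against log10 concentration.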

[2] = test system: colon HCT-116; experiment: as above
In short: as §1

[3] = test system: lung HOP-62; experiment: as above
In short: as §1

[4] = test system: melanoma UACC-62; experiment: as above
In short: as §1

[5] = test system: ovarian OVCAR-3; experiment: as above
In short: as §1

[6] = test system: prostate DU-145; experiment: as above
In short: as §1

[7] = test system: renal SN12C; experiment: as above
In short: as §1

[8] = test system: breast MDA-MB-435; experiment: as above
Method: COMPARE screening. The compounds described herein were examined for antiproliferative activity against the human cancer cell lines in the National Cancer Institute screen (COMPARE screening), in which the activity of each compound was evaluated with approximately 55 different cancer cell lines of diverse tumor origins. […] Therefore, the MGM value represents an overall assessment of toxicity of the compound across numerous cell lines.

[9] = test system: all human cancer cell lines successfully tested; experiment: NCI screen mean graph midpoint (MGM) for growth inhibition
In short: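 NCI60 panel cells exposed to compound at 100, 10, 1, 0.1 and 0.01 μM for 48 h, then sulforhodamine B staining. Percentage growth versus control plotted against log concentration; MGM is the midpoint across all lines tested.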

[10] = Table 1, average GI50 of all cell lines tested (approximately 55), test range 10^−8 to 10^−4 molar
[11] = all human cancer cell lines successfully tested
[12] = CNS SF-539, concentration corresponding to 50% growth inhibition, read-out: cytotoxicity (GI50 in μM) CNS SF-539
[13] = colon HCT-116, concentration corresponding to 50% growth inhibition, read-out: cytotoxicity (GI50 in μM) colon HCT-116
[14] = lung HOP-62, concentration corresponding to 50% growth inhibition, read-out: cytotoxicity (GI50 in μM) lung HOP-62
[15] = melanoma UACC-62, concentration corresponding to 50% growth inhibition, read-out: cytotoxicity (GI50 in μM) melanoma UACC-62
[16] = ovarian OVCAR-3, concentration corresponding to 50% growth inhibition, read-out: cytotoxicity (GI50 in μM) ovarian OVCAR-3
[17] = prostate DU-145, concentration corresponding to 50% growth inhibition, read-out: cytotoxicity (GI50 in μM) prostate DU-145
[18] = renal SN12C, concentration corresponding to 50% growth inhibition, read-out: cytotoxicity (GI50 in μM) renal SN12C
[19] = breast MDA-MB-435, concentration corresponding to 50% growth inhibition, read-out: cytotoxicity (GI50 in μM) breast MDA-MB-435

Structure (SMILES) | GI50 [1] | GI50 [2] | GI50 [3] | GI50 [4] | GI50 [5] | GI50 [6] | GI50 [7] | GI50 [8] | MGM (mean GI50 across cell lines) [9, 11] | MGM (mean graph midpoint for growth inhibition) [9, 11] | GI50 [1, 12] | GI50 [2, 13] | GI50 [3, 14] | GI50 [4, 15] | GI50 [5, 16] | GI50 [6, 17] | GI50 [7, 18] | GI50 [8, 19] | further results
Nn1c2c(c3ccccc3c1=O)C(=O)c1ccccc1-2 [Compound 5z, 6-Amino-5,6-dihydro-5,11-diketo-11H-indeno[1,2-c]isoquinoline] |  |  |  |  |  |  |  |  |  |  |  |  |  |  |  |  |  |  | GI50 ([1]; Homo sapiens, CNSSF-539, read-out: cytotoxicity (GI50) CNS SF-539): 28.2 µM; GI50 ([2]; Homo sapiens, HCT-116, read-out: cytotoxicity (GI50) colon HCT-116): > 50.1 µM; GI50 ([3]; Homo sapiens, HOP-62, read-out: cytotoxicity (GI50) lung HOP-62): 24.5 µM; GI50 ([4]; Homo sapiens, UACC-62, read-out: cytotoxicity (GI50) melanoma UACC-62): > 50.1 µM; GI50 ([5]; Homo sapiens, OVCAR-3, read-out: cytotoxicity (GI50) ovarian OVCAR-3): > 50.1 µM; GI50 ([6]; Homo sapiens, DU-145, read-out: cytotoxicity (GI50) prostate DU-145): > 50.1 µM; GI50 ([7]; Homo sapiens, SN12C, read-out: cytotoxicity (GI50) renal SN12C): > 50.1 µM; GI50 ([8]; Homo sapiens, MDA-MB-435, read-out: cytotoxicity (GI50) breast MDA-MB-435): > 50.1 µM; MGM (mean GI50 across cell lines) [9, 10]: 39.8 µM
O=C1c2ccccc2-c2c1c1ccccc1c(=O)n2CCNCCn1c2c(c3ccccc3c1=O)C(=O)c1ccccc1-2 [Compound 12a, Bis{(5,6-dihydro-5,11-diketo-11H-indeno[1,2-c]isoquinoline)-6-ethyl}amine] | > 25.1 µM | > 25.1 µM | > 25.1 µM | > 25.1 µM | > 25.1 µM | > 25.1 µM | > 25.1 µM | > 25.1 µM | 18.2 µM |  |  |  |  |  |  |  |  |  | 
O=C1c2ccccc2-c2c1c1ccccc1c(=O)n2CCCNCCCn1c2c(c3ccccc3c1=O)C(=O)c1ccccc1-2 [Compound 12c, Bis{(5,6-dihydro-5,11-diketo-11H-indeno[1,2-c]isoquinoline)-6-propyl}amine] | 3.63 µM | 0.55 µM | 0.794 µM | 6.61 µM | 2.95 µM | 1 µM | 1.55 µM | 8.91 µM |  | 4.28 ± 1.89 µM |  |  |  |  |  |  |  |  | 
CC(C)(C)OC(=O)N(CCCN(CCn1c2c(c3ccccc3c1=O)C(=O)c1ccccc1-2)C(=O)OC(C)(C)C)CCn1c2c(c3ccccc3c1=O)C(=O)c1ccccc1-2 [Compound 13a, Bis-1,3-{(5,6-dihydro-5,11-diketo-11H-indeno[1,2-c]isoquinoline)-(6-ethyl-tert-BOCamino)}propane] |  |  |  |  |  |  |  |  | 33.9 µM |  | > 50.1 µM | 22.9 µM | 22.4 µM | > 50.1 µM | 21.4 µM | > 50.1 µM | > 50.1 µM | > 50.1 µM | 
CC(C)(C)OC(=O)N(CCCn1c2c(c3ccccc3c1=O)C(=O)c1ccccc1-2)CCN(CCCn1c2c(c3ccccc3c1=O)C(=O)c1ccccc1-2)C(=O)OC(C)(C)C [Compound 13b, Bis-1,2-{(5,6-dihydro-5,11-diketo-11H-indeno[1,2-c]isoquinoline)-(6-propyl-tert-BOCamino)}ethane] |  |  |  |  |  |  |  |  | 28.2 µM |  | > 50.1 µM | 14.1 µM | 20 µM | 45.7 µM | 13.2 µM | > 50.1 µM | 39.8 µM | > 50.1 µM | 
CC(C)(C)OC(=O)N(CCCCN(CCCn1c2c(c3ccccc3c1=O)C(=O)c1ccccc1-2)C(=O)OC(C)(C)C)CCCn1c2c(c3ccccc3c1=O)C(=O)c1ccccc1-2 [Compound 13d, Bis-1,4-{(5,6-dihydro-5,11-diketo-11H-indeno[1,2-c]isoquinoline)-(6-propyl-tert-BOCamino)}butane] |  |  |  |  |  |  |  |  | 35.5 µM |  | 8.13 µM | 1.91 µM | 11 µM | 93.3 µM | 69.2 µM | 47.9 µM | 36.3 µM | 69.2 µM | 
O=C(O)C(F)(F)F.O=C1c2ccccc2-c2c1c1ccccc1c(=O)n2CCCNCCn1c2c(c3ccccc3c1=O)C(=O)c1ccccc1-2 [Compound 14a, Bis{(5,6-dihydro-5,11-diketo-11H-indeno[1,2-c]isoquinoline)}-(6-ethyl,6′-propyl)ammonium Trifluoroacetate] | 14.5 µM | 1.05 µM | 0.977 µM | 5.01 µM | 8.91 µM | 1.91 µM | 11 µM | 2.24 µM | 5.25 µM |  |  |  |  |  |  |  |  |  | 
O=C(O)C(F)(F)F.O=C(O)C(F)(F)F.O=C1c2ccccc2-c2c1c1ccccc1c(=O)n2CCCN1CCN(CCCn2c3c(c4ccccc4c2=O)C(=O)c2ccccc2-3)CC1 [Compound 14f, Bis-1,4-{(5,6-dihydro-5,11-diketo-11H-indeno[1,2-c]isoquinoline)-6-propyl}piperazine Bis(trifluoroacetate)] | > 100 µM | 35.5 µM | 12.9 µM | > 100 µM | > 100 µM | 24 µM | 15.5 µM | > 100 µM |  | 44.8 ± 2.05 µM |  |  |  |  |  |  |  |  | 
COc1cc2c3c(n(CCNCCCNCCn4c5c(c6cc(OC)c(OC)cc6c4=O)C(=O)c4ccccc4-5)c(=O)c2cc1OC)-c1ccccc1C3=O.O=C(O)C(F)(F)F.O=C(O)C(F)(F)F [Compound 14k, Bis-1,3-{(5,6-dihydro-5,11-diketo-2,3-dimethoxy-11H-indeno[1,2-c]isoquinoline)-6-ethylamino}propane Bis{trifluoroacetate)] |  |  |  |  |  |  |  |  | 0.562 µM |  | 0.17 µM | 0.045 µM | 0.068 µM | 1.23 µM | 0.269 µM | 0.209 µM | 0.028 µM | 0.813 µM | 
COc1cc2c3c(n(CCCNCCCNCCCn4c5c(c6cc(OC)c(OC)cc6c4=O)C(=O)c4ccccc4-5)c(=O)c2cc1OC)-c1ccccc1C3=O.O=C(O)C(F)(F)F.O=C(O)C(F)(F)F [Compound 14l, Bis-1,3-{(5,6-dihydro-5,11-diketo-2,3-dimethoxy-11H-indeno[1,2-c]isoquinoline)-6-propylamino}propane Bis{trifluoroacetate)] |  |  |  |  |  |  |  |  | 6.03 µM |  | 4.17 µM | 0.331 µM | 1.51 µM | 4.27 µM | 9.55 µM | 19.5 µM | 0.24 µM | 3.98 µM | 
O=C(O)C(F)(F)F.O=C(O)C(F)(F)F.O=C1c2ccccc2-c2c1c1ccc([N+](=O)[O-])cc1c(=O)n2CCNCCCNCCn1c2c(c3ccc([N+](=O)[O-])cc3c1=O)C(=O)c1ccccc1-2 [Compound 14m, Bis-1,3-{(5,6-dihydro-5,11-diketo-3-nitro-11H-indeno[1,2-c]isoquinoline)-6-ethylamino}propane Bis{trifluoroacetate)] |  |  |  |  |  |  |  |  |  | 0.354 ± 0.184 µM | 0.324 µM | 0.044 µM | 0.631 µM | 0.603 µM | 0.245 µM | 0.813 µM | 0.123 µM | 0.437 µM | 
O=C(O)C(F)(F)F.O=C(O)C(F)(F)F.O=C1c2ccccc2-c2c1c1ccc([N+](=O)[O-])cc1c(=O)n2CCCNCCCNCCCn1c2c(c3ccc([N+](=O)[O-])cc3c1=O)C(=O)c1ccccc1-2 [Compound 14n, Bis-1,3-{(5,6-dihydro-5,1-diketo-3-nitro-11H-indeno[1,2-c]isoquinoline)-6-propylamino}propane Bis{trifluoroacetate)] |  |  |  |  |  |  |  |  |  | 1.50 ± 0.24 µM | 1.17 µM | 1.45 µM | 3.02 µM | 1.78 µM | 2.29 µM | 0.912 µM | 1.17 µM | 3.89 µM | 
O=C1c2ccccc2-c2c1c1ccccc1c(=O)n2CCNCCO [Compound S-2, oracin, reference compound] | 1.65 µM | 1.12 µM | 1.62 µM | 1.42 µM | 3.85 µM | 1.28 µM | 0.95 µM | 2.56 µM |  |  |  |  |  |  |  |  |  |  | MGM (mean graph midpoint for growth inhibition) [9, 10]: 1.90 ± 0.80 µM
NCCCn1c2c(c3ccccc3c1=O)C(=O)c1ccccc1-2 [Compound S-3, 5,6-dihyro-6-(3-amino-1-propyl)-5,11-dioxo-11H-indeno[1,2,c]isoquinoline, reference compound] | 0.25 µM | 0.18 µM | 0.2 µM | 0.26 µM | 1.38 µM | 0.22 µM | 0.16 µM | 0.78 µM |  | 0.32 ± 0.23 µM |  |  |  |  |  |  |  |  | 
